Experimental data reported in US9724397B2, “Sustained release formulations comprising very low molecular weight polymers” (IPSEN PHARMA S.A.S., priority 2006, dated 2017).

Assay: In-vivo release assay in Beagle dogs with a VLMW polymer not end-capped
Settings: 10% BIM21003 in PLGA 50/50 ended by carboxylic acid group (J001/3000013), intramuscular, about 3.6 mg per animal, RIA
Method: An in-vivo assay was performed with a semi-solid formulation of 10% BIM21003 using a PLGA 50/50 ended by a carboxylic acid group (J001/3000013 batch, see table 1). The preparation of the formulation was achieved by a push-pull kneading process with 2 syringes at about 50° C. as described in example 6. The mixture (bulk product) was conditioned in a 0.3 ml single-dose syringes coupled with 20×1.4 mm needles thereafter packed in individual aluminium sealed bags, and sterilized by gamma-irradiation at 25 kGy in dry ice.
Six male Beagle dogs were administered intramuscularly with single-dose syringes previously heated at 50° C. for 3 min in order to improve its fluidity and facilitate its injection. Syringes were weighted before and after administration, and the injected dose of BIM21003 was calculated to be about 3.6 mg per animal.
Four-ml blood samples were obtained from cephalic veins at specified time intervals post-administration. The blood samples were placed in tubes containing an anticoagulant (15% EDTA.K3 aqueous solution) and a preservative (Trasylol®). After centrifugation, plasma was removed and samples were stored below −20° C. until RIA analysis.

BIM-21003 plasma levels after 3 days post-administration: below the limit of quantification
Structure (SMILES): CC(C)C[C@H](NC(=O)[C@@H](Cc1c[nH]c2ccccc12)NC(=O)[C@H](Cc1ccc(O)cc1)NC(=O)[C@H](CO)NC(=O)[C@H](Cc1c[nH]c2ccccc12)NC(=O)[C@H](Cc1c[nH]cn1)NC(=O)[C@@H]1CCC(=O)N1)C(=O)N[C@@H](CCCNC(=N)N)C(=O)N1CCC[C@H]1C(=O)NCC(N)=O [BIM-21003, triptorelin]
